Measured values: US9890133B2 (priority 2011, dated 2018)
≈ marks a conversion by molar mass, not a printed value.

What was measured:
[1] = in vitro; settings: human
[2] = test system: Poliovirus 3; assay: microbe, parasite or virus in culture; assay type: cell-based; settings: Enterovirus C, read-out: Poliovirus3 EC50

Work on CC(C)c1ccc2c(c1)OC1(O)c3cccc(N)c3C(=O)C21NC(=O)c1ccccn1 (stereo not shown) [Example 197, N-(1-Amino-4b-hydroxy-7-isopropyl-10-oxo-9b,10-dihydro-4bH-indeno[1,2-b]benzofuran-9b-yl)picolinamide] yielded a CC50 [1] of 16 µg/mL (≈ 38.6 µM), a CC50 ([1]; Picorana CC50) of 34.5 µg/mL (≈ 82.9 µM) and an EC50 [2] of less than 0.01 µg/mL.
In the case of CC(C)c1ccc2c(c1)OC1(O)c3cccc(N)c3C(=O)C21NC(=O)c1cc2ccccc2n1C (stereo not shown) [Example 268, N-(1-Amino-4b-hydroxy-7-isopropyl-10-oxo-9b,10-dihydro-4bH-indeno[1,2-b]benzofuran-9b-yl)-1-methyl-1H-indole-2-carboxamide], the CC50 [1] is reported as greater than 10 µg/mL, the CC50 ([1]; Picorana CC50) is reported as 9.28 µg/mL (≈ 19.8 µM) and the EC50 [2] is reported as 0.036 µg/mL (≈ 0.077 µM).
Compound Cc1c(C(=O)NC23C(=O)c4c(N)cccc4C2(O)Oc2cc(C(C)C)ccc23)oc2ccccc12 (stereo not shown) [Example 205] has a CC50 [1] greater than 10 µg/mL and an EC50 [2] of 0.036 µg/mL (≈ 0.0768 µM).
Compound CC(C)c1ccc2c(c1)OC1(O)c3cccc(N)c3C(=O)C21NC(=O)c1ccncc1 (stereo not shown) [Example 199, N-(1-Amino-4b-hydroxy-7-isopropyl-10-oxo-9b,10-dihydro-4bH-indeno[1,2-b]benzofuran-9b-yl)isonicotinamide] has a CC50 [1] of 43 µg/mL (≈ 103 µM), a CC50 ([1]; Picorana CC50) of 48.3 µg/mL (≈ 116 µM) and an EC50 [2] of less than 0.01 µg/mL.
For CC(C)c1ccc2c(c1)OC1(O)c3cccc(N)c3C(=O)C21NC(=O)c1cc2ncccn2n1 (stereo not shown) [Example 273, N-(1-Amino-4b-hydroxy-7-isopropyl-10-oxo-9b,10-dihydro-4bH-indeno[1,2-b]benzofuran-9b-yl)pyrazolo[1,5-a]pyrimidine-2-carboxamide], the CC50 [1] was greater than 10 µg/mL and the EC50 [2] was less than 0.01 µg/mL.
For Cc1cncc(C(=O)NC23C(=O)c4c(N)cccc4C2(O)Oc2cc(C(C)C)ccc23)c1 (stereo not shown) [Example 259, N-(1-Amino-4b-hydroxy-7-isopropyl-10-oxo-9b,10-dihydro-4bH-indeno[1,2-b]benzofuran-9b-yl)-5-methylnicotinamide], the CC50 [1] was greater than 10 µg/mL and the EC50 [2] was less than 0.01 µg/mL.
Cc1cc2c(cc1C)C1(NC(=O)c3cccnc3)C(=O)c3c(N)cccc3C1(O)O2 (stereo not shown) [Example 260, N-(1-Amino-4b-hydroxy-7,8-dimethyl-10-oxo-9b,10-dihydro-4bH-indeno[1,2-b]benzofuran-9b-yl)nicotinamide] showed a CC50 [1] greater than 10 µg/mL and an EC50 [2] of 0.04 µg/mL (≈ 0.0996 µM).
With CC(C)c1ccc2c(c1)OC1(O)c3cccc(N)c3C(=O)C21NC(=O)c1ccc2ncccc2c1 (stereo not shown) [Example 203] the CC50 [1] was greater than 10 µg/mL and the EC50 [2] was less than 0.01 µg/mL.
With CC(C)c1ccc2c(c1)OC1(O)c3cccc(N)c3C(=O)C21NC(=O)c1cc2ccccc2s1 (stereo not shown) [Example 235, N-(1-Amino-4b-hydroxy-7-isopropyl-10-oxo-9b,10-dihydro-4bH-benzo[d]indeno[1,2-b]furan-9b-yl)benzo[b]thiophene-2-carboxamide] the CC50 [1] was 8.88 µg/mL (≈ 18.9 µM), the CC50 ([1]; Picorana CC50) was 7.97 µg/mL (≈ 16.9 µM) and the EC50 [2] was less than 0.01 µg/mL.
Work on CC(C)c1ccc2c(c1)OC1(O)c3cccc(N)c3C(=O)C21NC(=O)c1ccc2ccccc2n1 (stereo not shown) [Example 263] yielded a CC50 [1] of 5.4 µg/mL (≈ 11.6 µM), a CC50 ([1]; Picorana CC50) of 7.65 µg/mL (≈ 16.4 µM) and an EC50 [2] of 0.039 µg/mL (≈ 0.0838 µM).
With CC(C)c1ccc2c(c1)OC1(O)c3cccc(N)c3C(=O)C21NC(=O)c1ccc2nccn2c1 (stereo not shown) [Example 272, N-(1-Amino-4b-hydroxy-7-isopropyl-10-oxo-9b,10-dihydro-4bH-indeno[1,2-b]benzofuran-9b-yl)imidazo[1,2-a]pyridine-6-carboxamide] the CC50 [1] was greater than 10 µg/mL and the EC50 [2] was less than 0.01 µg/mL.
CC(C)c1ccc2c(c1)OC1(O)c3cccc(N)c3C(=O)C21NC(=O)c1cnccn1 (stereo not shown) [Example 200, N-(1-Amino-4b-hydroxy-7-isopropyl-10-oxo-9b,10-dihydro-4bH-indeno[1,2-b]benzofuran-9b-yl) pyrazine-2-carboxamide] showed a CC50 [1] greater than 10 µg/mL and an EC50 [2] of less than 0.01 µg/mL.
Work on CC(C)c1ccc2c(c1)OC1(O)c3cccc(N)c3C(=O)C21NC(=O)c1cc2ccccc2o1 (stereo not shown) [Example 204, N-(1-Amino-4b-hydroxy-7-isopropyl-10-oxo-9b,10-dihydro-4bH-benzo[d]indeno[1,2-b]furan-9b-yl)benzofurane-2-carboxamide] yielded a CC50 [1] greater than 10 µg/mL, a CC50 ([1]; Picorana CC50) greater than 4.51 µg/mL and an EC50 [2] of 0.011 µg/mL (≈ 0.0242 µM).
CC(C)c1ccc2c(c1)OC1(O)c3cccc(N)c3C(=O)C21NC(=O)[C@@H]1CSC(=O)N1 (stereo partly drawn) [Example 207, (4R)—N-(1-amino-4b-hydroxy-7-isopropyl-10-oxo-9b,10-dihydro-4bH-indeno[1,2-b]benzofuran-9b-yl)-2-oxothiazolidine-4-carboxamide] gave a CC50 [1] greater than 10 µg/mL and an EC50 [2] of less than 0.01 µg/mL.
For CC(C)c1ccc2c(c1)OC1(O)c3cccc(N)c3C(=O)C21NC(=O)c1ncccc1Cl (stereo not shown) [Example 246, N-(1-Amino-4b-hydroxy-7-isopropyl-10-oxo-9b,10-dihydro-4bH-benzo[d]indeno[1,2-b]furan-9b-yl)-3-chloropicolinamide], the CC50 [1] was greater than 10 µg/mL, the CC50 ([1]; Picorana CC50) was 9.84 µg/mL (≈ 21.9 µM) and the EC50 [2] was less than 0.01 µg/mL.
In the case of Cc1ccccc1C(=O)NC12C(=O)c3c(N)cccc3C1(O)Oc1cc(C(C)C)ccc12 (stereo not shown) [Example 186, N-(1-Amino-4b-hydroxy-7-isopropyl-10-oxo-9b,10-dihydro-4bH-benzo[d]indeno[1,2-b]furan-9b-yl)-2-methylbenzamide], the CC50 [1] is reported as greater than 10 µg/mL, the CC50 ([1]; Picorana CC50) is reported as 8.31 µg/mL (≈ 19.4 µM) and the EC50 [2] is reported as 0.026 µg/mL (≈ 0.0607 µM).
Compound CC(C)c1ccc2c(c1)OC1(O)c3cccc(N)c3C(=O)C21NC(=O)c1cc2ccccc2c(=O)[nH]1 (stereo not shown) [Example 286, N-(1-Amino-4b-hydroxy-7-isopropyl-10-oxo-9b,10-dihydro-4bH-indeno[1,2-b]benzofuran-9b-yl)-1-oxo-1,2-dihydroisoquinoline-3-carboxamide] has a CC50 [1] of 4.04 µg/mL (≈ 8.39 µM), a CC50 ([1]; Picorana CC50) of 4.28 µg/mL (≈ 8.89 µM) and an EC50 [2] of less than 0.01 µg/mL.
In the case of CC(C)c1ccc2c(c1)OC1(O)c3cccc(N)c3C(=O)C21NC(=O)c1cncc(O)c1 (stereo not shown) [Example 256, N-(1-Amino-4b-hydroxy-7-isopropyl-10-oxo-9b,10-dihydro-4bH-indeno[1,2-b]benzofuran-9b-yl)-5-hydroxynicotinamide], the CC50 [1] is reported as greater than 10 µg/mL and the EC50 [2] is reported as less than 0.01 µg/mL.
For CC(C)c1ccc2c(c1)OC1(O)c3cccc(N)c3C(=O)C21NC(=O)C1CCCO1 (stereo not shown) [Example 174, N-(1-Amino-4b-hydroxy-7-isopropyl-10-oxo-9b,10-dihydro-4bH-benzo[d]indeno[1,2-b]furan-9b-yl)tetrahydrofurane-2-carboxamide], the CC50 [1] was greater than 10 µg/mL and the EC50 [2] was 0.019 µg/mL (≈ 0.0465 µM).
For Cc1ccnc(C(=O)NC23C(=O)c4c(N)cccc4C2(O)Oc2cc(C(C)C)ccc23)c1 (stereo not shown) [Example 243, N-(1-Amino-4b-hydroxy-7-isopropyl-10-oxo-9b,10-dihydro-4bH-benzo[d]indeno[1,2-b]furan-9b-yl)-4-methylpicolinamide], the CC50 [1] was greater than 10 µg/mL, the CC50 ([1]; Picorana CC50) was 7.36 µg/mL (≈ 17.1 µM) and the EC50 [2] was less than 0.01 µg/mL.
For CC(C)c1ccc2c(c1)OC1(O)c3cccc(N)c3C(=O)C21NC(=O)c1nccn1C (stereo not shown) [Example 252, N-(1-Amino-4b-hydroxy-7-isopropyl-10-oxo-9b,10-dihydro-4bH-indeno[1,2-b]benzofuran-9b-yl)-1-methyl-1H-imidazole-2-carboxamide], the CC50 [1] was 3.53 µg/mL (≈ 8.44 µM), the CC50 ([1]; Picorana CC50) was 3.64 µg/mL (≈ 8.7 µM) and the EC50 [2] was less than 0.01 µg/mL.
CCCCC(=O)NC12C(=O)c3c(N)cccc3C1(OC(=O)CCCC)Oc1cc(C(C)C)ccc12 (stereo not shown) [Example 96, 1-Amino-7-isopropyl-10-oxo-9b-pentanamido-9b,10-dihydro-4bH-benzo[d]indeno[1,2-b]furan-4b-yl pentanoate] gave a CC50 [1] of 24 µg/mL (≈ 50.1 µM), a CC50 ([1]; Picorana CC50) greater than 50 µg/mL and an EC50 [2] of 0.016 µg/mL (≈ 0.0334 µM).
In the case of COC(=O)OC12Oc3cc(C(C)C)ccc3C1(NC(C)=O)C(=O)c1c(N)cccc12 (stereo not shown) [Example 113, 9b-acetamido-1-amino-7-isopropyl-10-oxo-9b,10-dihydro-4bH-indeno[1,2-b]benzofuran-4b-yl methyl carbonate], the CC50 [1] is reported as 48.8 µg/mL (≈ 119 µM), the CC50 ([1]; Picorana CC50) is reported as 45.5 µg/mL (≈ 111 µM) and the EC50 [2] is reported as less than 0.01 µg/mL.
Work on CC(C)c1ccc2c(c1)OC1(O)c3cccc(N)c3C(=O)C21NC=O (stereo not shown) [Example 166, N-(1-Amino-4b-hydroxy-7-isopropyl-10-oxo-9b,10-dihydro-4bH-indeno[1,2-b]benzofuran-9b-yl)formamide] yielded a CC50 [1] greater than 10 µg/mL and an EC50 [2] of less than 0.01 µg/mL.
For CC(C)c1ccc2c(c1)OC1(O)c3cccc(N)c3C(=O)C21NC(=O)C1CC1 (stereo not shown) [Example 158, N-(1-Amino-4b-hydroxy-7-isopropyl-10-oxo-9b,10-dihydro-4bH-indeno[1,2-b]benzofuran-9b-yl)cyclopropanecarboxamide], the CC50 [1] was 39.4 µg/mL (≈ 104 µM), the CC50 ([1]; Picorana CC50) was 44.7 µg/mL (≈ 118 µM) and the EC50 [2] was less than 0.01 µg/mL.
Compound CC(C)c1ccc2c(c1)OC1(O)c3cccc(N)c3C(=O)C21NC(=O)c1ccc(C#N)cn1 (stereo not shown) [Example 245, N-(1-Amino-4b-hydroxy-7-isopropyl-10-oxo-9b,10-dihydro-4bH-benzo[d]indeno[1,2-b]furan-9b-yl)-5-cyanopicolinamide] has a CC50 [1] greater than 10 µg/mL, a CC50 ([1]; Picorana CC50) of 8.47 µg/mL (≈ 19.2 µM) and an EC50 [2] of less than 0.01 µg/mL.
Compound CC(C)c1ccc2c(c1)OC1(O)c3cccc(N)c3C(=O)C21NC(=O)c1nc2cc(F)ccc2[nH]1 (stereo not shown) [Example 291, N-(1-Amino-4b-hydroxy-7-isopropyl-10-oxo-9b,10-dihydro-4bH-indeno[1,2-b]benzofuran-9b-yl)-5-fluoro-1H-benzo[d]imidazole-2-carboxamide] has a CC50 [1] of 4.51 µg/mL (≈ 9.55 µM), a CC50 ([1]; Picorana CC50) of 4.43 µg/mL (≈ 9.38 µM) and an EC50 [2] of 0.036 µg/mL (≈ 0.0762 µM).
With CC(C)c1ccc2c(c1)OC1(O)c3cccc(N)c3C(=O)C21NC(=O)c1ccc2ccccc2c1 (stereo not shown) [Example 171, N-(1-Amino-4b-hydroxy-7-isopropyl-10-oxo-9b,10-dihydro-4bH-indeno[1,2-b]benzofuran-9b-yl)-2-naphthamide] the CC50 [1] was greater than 10 µg/mL and the EC50 [2] was 0.03 µg/mL (≈ 0.0646 µM).
In the case of CC(C)c1ccc2c(c1)OC1(O)c3cccc(N)c3C(=O)C21NC(=O)/C=C/c1ccc(Cl)c(Cl)c1 (stereo not shown) [Example 180], the CC50 [1] is reported as greater than 10 µg/mL, the CC50 ([1]; Picorana CC50) is reported as 4.32 µg/mL (≈ 8.48 µM) and the EC50 [2] is reported as 0.033 µg/mL (≈ 0.0648 µM).
Cc1ccncc1C(=O)NC12C(=O)c3c(N)cccc3C1(O)Oc1cc(C(C)C)ccc12 (stereo not shown) [Example 258, N-(1-Amino-4b-hydroxy-7-isopropyl-10-oxo-9b,10-dihydro-4bH-indeno[1,2-b]benzofuran-9b-yl)-4-methylnicotinamide] showed a CC50 [1] greater than 10 µg/mL and an EC50 [2] of 0.04 µg/mL (≈ 0.0931 µM).
With Cc1nn(C)c2ncc(C(=O)NC34C(=O)c5c(N)cccc5C3(O)Oc3cc(C(C)C)ccc34)cc12 (stereo not shown) [Example 271, N-(1-Amino-4b-hydroxy-7-isopropyl-10-oxo-9b,10-dihydro-4bH-indeno[1,2-b]benzofuran-9b-yl)-1,3-dimethyl-1H-pyrazolo[3,4-b]pyridine-5-carboxamide] the CC50 [1] was greater than 10 µg/mL and the EC50 [2] was less than 0.01 µg/mL.
